According to patent publication US20220193062A1 (DENOVO BIOPHARMA LLC, priority 2018, published 2022):
Like-named read-outs stand apart in the source and are kept apart here. Values belong to the molecule of their own block, whether it stands above or below them.

Assays:
[1] = tested on: Bmx, CSK, FGR, BRK, and HCK; conditions: cited from earlier work
[2] = tested on: EGFR, Yes, ErbB2, and JAK3; conditions: cited from earlier work
[3] = biological target: T1, bone marrow tyrosine kinase on chromosome X (BMX) (Homo sapiens, UniProt P51813); conditions: targets Cys496 in the BMX ATP binding domain; cited from earlier work
T1 sequence (P51813 1-675): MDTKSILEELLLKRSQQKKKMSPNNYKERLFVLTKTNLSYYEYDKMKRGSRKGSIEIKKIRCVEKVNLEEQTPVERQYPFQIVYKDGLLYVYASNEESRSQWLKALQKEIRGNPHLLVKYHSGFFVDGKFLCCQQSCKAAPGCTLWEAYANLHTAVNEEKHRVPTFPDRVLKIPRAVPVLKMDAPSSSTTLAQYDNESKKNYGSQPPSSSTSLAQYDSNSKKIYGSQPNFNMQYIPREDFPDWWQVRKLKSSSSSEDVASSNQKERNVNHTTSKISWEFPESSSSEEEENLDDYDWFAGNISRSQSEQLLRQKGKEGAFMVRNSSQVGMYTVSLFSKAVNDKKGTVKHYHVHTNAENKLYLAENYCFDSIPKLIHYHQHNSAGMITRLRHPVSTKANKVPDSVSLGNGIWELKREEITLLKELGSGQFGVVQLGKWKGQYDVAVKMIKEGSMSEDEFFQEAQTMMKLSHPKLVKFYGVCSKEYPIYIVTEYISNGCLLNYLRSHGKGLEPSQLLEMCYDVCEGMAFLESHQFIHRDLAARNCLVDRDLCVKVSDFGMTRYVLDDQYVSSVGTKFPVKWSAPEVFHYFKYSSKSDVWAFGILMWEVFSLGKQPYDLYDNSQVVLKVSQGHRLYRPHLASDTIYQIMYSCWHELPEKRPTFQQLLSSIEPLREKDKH

BTK [4] = biological target: BTK (Rattus norvegicus, UniProt Q5S255); conditions: read-out: in vivo IC50; rats; cited from earlier work
Plx1 = Plx1 (Xenopus laevis, UniProt P70032); conditions: cited from earlier work
PLK3 = PLK3 (Homo sapiens, UniProt Q9H4B4); conditions: cited from earlier work
BTK [5] = biological target: BTK (Homo sapiens, UniProt Q06187); conditions: cited from earlier work
[6] = biological target: T2, interleukin-2-inducible T-cell kinase (ITK) (Homo sapiens, UniProt Q08881); conditions: cited from earlier work
T2 sequence (Q08881 1-620): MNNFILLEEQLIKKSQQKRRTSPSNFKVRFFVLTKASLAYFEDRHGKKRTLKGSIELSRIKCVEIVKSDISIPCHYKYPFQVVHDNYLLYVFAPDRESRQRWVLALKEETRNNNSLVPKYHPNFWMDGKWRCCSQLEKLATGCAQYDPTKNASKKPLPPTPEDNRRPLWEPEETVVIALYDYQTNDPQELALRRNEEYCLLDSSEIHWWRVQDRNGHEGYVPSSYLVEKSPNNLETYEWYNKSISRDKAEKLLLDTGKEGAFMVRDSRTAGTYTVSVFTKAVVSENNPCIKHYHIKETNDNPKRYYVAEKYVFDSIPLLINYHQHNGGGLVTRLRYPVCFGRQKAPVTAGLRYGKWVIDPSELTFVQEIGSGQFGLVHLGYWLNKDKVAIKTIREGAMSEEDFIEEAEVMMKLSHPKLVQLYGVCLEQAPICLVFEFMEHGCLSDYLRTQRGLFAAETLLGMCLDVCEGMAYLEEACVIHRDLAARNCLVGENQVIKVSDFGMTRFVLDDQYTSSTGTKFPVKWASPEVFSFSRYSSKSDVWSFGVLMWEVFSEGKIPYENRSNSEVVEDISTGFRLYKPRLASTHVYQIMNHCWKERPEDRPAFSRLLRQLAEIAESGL

SU-DHL-6 = assay: Cell proliferation assay (Cell Titer AQueous One Solution), Example 2; format: cell-based; conditions: Homo sapiens; SU-DHL-6, 72 h, 0.014 μM-10 μM
[7] = tested on: p-BTK in HBL-1 and TMD8 cells; assay: Western blot of p-BTK after enzastaurin; format: cell-based; conditions: 2 hours treatment
HBL-1 cells [8] = assay: Transwell invasion assay (Matrigel); format: cell-based; conditions: HBL-1, 2 micromolar enzastaurin and/or 0.02 micromolar ibrutinib
HBL-1 cells [9] = assay: Transwell migration assay; format: cell-based; conditions: HBL-1, 2 micromolar enzastaurin and/or 0.02 micromolar ibrutinib
SU-DHL-5 = assay: Cell proliferation assay (Cell Titer AQueous One Solution), Example 2; format: cell-based; conditions: Homo sapiens; SU-DHL-5, 72 h, 0.014 μM-10 μM
[10] = tested on: signals downstream of BCR in HBL-1, TMD-8, and SU-DHL-6 cells; assay: Western blot of downstream BCR signalling; format: cell-based
HBL-1 cells [11] = assay: Whole-transcriptome RNA-seq; format: cell-based; conditions: HBL-1, 24 hours
DLBCL patients [12] = conditions: Phase I/II studies, cited from earlier work
[13] = tested on: ABC-DLBCL HBL-1 cells engrafted in NPG mice; assay: HBL-1 lymphoma xenograft model; format: in vivo; conditions: for tumour weight: end of the experiment (day 39), vehicle 1321.50±168.84 mg; for reduction of tumor volume: enzastaurin 50 mg/kg BID oral, ibrutinib 12 mg/kg QD oral, 21 days
high-risk DLBCL patients = conditions: enzastaurin alone, after remission of B cell lymphoma; cited from earlier work
[14] = tested on: PARP, XIAP, MCL-1, caspase-3, Bcl-2 in HBL-1 cells; assay: Western blot of proteins associated with apoptosis; format: cell-based; conditions: HBL-1, 48 hours
HBL-1 cells [15] = assay: Apoptosis assay, annexin V flow cytometry; format: cell-based; conditions: HBL-1, 48 h
DLBCL patients [16] = conditions: DLBCL trials of enzastaurin; cited from earlier work
[17] = tested on: ABC and GCB types of DLBCL cell lines; assay: Cell Titer-Glo cell viability, enzastaurin alone, 9 DLBCL cell lines; format: cell-based; conditions: 72 h; read-out: 50% inhibitory concentration (IC50) of cell proliferation
relapsed DLBCL patients = conditions: cited from earlier work

BTK (Homo sapiens, UniProt Q06187), sequence (Q06187 whole entry, species assumed): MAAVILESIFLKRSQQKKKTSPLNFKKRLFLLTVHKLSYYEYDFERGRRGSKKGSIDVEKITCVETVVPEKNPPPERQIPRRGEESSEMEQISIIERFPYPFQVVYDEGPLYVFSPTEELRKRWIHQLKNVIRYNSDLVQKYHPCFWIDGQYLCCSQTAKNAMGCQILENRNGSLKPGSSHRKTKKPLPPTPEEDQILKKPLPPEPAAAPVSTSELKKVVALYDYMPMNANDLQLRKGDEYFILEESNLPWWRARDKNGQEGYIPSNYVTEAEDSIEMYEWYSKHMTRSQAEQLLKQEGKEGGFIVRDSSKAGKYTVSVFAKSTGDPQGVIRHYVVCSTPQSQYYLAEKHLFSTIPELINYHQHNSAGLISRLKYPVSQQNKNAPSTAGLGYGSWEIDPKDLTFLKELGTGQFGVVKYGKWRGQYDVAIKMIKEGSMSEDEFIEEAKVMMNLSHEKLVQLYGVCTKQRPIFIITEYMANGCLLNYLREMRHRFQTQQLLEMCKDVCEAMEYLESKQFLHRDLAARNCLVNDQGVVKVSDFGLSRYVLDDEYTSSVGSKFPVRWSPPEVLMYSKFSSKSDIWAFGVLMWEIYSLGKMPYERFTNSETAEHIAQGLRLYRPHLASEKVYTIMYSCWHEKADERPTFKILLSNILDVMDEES
BTK (Rattus norvegicus, UniProt Q5S255), sequence (Q5S255 1-660): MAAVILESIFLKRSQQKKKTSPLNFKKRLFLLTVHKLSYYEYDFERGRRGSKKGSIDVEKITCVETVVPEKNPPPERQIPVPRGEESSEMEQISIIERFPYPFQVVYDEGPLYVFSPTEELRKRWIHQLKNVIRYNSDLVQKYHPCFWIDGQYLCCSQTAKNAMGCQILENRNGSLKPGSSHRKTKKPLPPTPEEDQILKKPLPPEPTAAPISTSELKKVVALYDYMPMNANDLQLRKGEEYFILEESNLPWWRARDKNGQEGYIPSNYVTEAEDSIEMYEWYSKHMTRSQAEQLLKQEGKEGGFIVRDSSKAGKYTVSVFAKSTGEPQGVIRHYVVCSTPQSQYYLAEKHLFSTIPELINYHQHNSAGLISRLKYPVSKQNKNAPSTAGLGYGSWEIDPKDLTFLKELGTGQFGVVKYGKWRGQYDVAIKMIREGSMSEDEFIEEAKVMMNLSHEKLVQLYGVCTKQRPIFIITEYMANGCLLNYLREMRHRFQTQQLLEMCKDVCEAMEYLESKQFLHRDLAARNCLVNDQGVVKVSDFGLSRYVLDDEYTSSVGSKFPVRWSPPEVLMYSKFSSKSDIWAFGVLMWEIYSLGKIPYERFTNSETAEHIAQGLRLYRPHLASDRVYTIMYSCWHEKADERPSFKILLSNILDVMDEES
PLK3, sequence (Q9H4B4 whole entry, species assumed): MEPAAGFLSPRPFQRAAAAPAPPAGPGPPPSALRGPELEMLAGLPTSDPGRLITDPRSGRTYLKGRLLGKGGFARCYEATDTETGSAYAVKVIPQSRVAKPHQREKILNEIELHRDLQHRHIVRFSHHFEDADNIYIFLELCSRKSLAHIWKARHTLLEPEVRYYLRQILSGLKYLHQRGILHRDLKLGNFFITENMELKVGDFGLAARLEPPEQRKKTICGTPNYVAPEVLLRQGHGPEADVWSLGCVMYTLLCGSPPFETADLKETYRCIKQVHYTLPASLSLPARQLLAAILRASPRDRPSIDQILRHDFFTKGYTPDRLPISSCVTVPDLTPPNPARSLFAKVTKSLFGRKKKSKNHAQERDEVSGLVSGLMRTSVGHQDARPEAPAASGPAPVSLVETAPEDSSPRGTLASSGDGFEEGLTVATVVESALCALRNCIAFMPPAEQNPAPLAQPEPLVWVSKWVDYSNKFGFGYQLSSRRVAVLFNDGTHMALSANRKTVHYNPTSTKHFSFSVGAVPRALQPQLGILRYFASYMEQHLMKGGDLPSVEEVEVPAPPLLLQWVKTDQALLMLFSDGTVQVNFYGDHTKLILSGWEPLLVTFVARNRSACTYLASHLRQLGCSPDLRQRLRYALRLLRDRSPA
Plx1, sequence (P70032 whole entry): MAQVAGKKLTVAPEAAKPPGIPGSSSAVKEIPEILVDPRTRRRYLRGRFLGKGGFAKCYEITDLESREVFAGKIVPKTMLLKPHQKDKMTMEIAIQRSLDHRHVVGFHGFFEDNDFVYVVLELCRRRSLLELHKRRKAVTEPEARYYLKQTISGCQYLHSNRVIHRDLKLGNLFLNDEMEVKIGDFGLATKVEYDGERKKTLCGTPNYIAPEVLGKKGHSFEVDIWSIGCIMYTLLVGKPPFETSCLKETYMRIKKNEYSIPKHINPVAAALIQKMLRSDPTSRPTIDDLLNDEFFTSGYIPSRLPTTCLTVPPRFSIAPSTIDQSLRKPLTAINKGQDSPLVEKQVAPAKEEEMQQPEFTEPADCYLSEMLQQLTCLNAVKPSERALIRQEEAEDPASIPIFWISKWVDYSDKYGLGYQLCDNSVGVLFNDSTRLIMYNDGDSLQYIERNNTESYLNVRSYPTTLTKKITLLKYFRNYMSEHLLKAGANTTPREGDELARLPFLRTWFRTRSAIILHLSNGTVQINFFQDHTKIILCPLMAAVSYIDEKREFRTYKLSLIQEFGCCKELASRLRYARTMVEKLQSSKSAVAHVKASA

Structure (SMILES): C=CC(=O)N1CCC[C@@H](n2nc(-c3ccc(Oc4ccccc4)cc3)c3c(N)ncnc32)C1 (racemic) [PCI-32765]
inhibition of Bmx, CSK, FGR, BRK, and HCK [1]: moderate inhibition
activity on EGFR, Yes, ErbB2, and JAK3 [2]: lower activity

Structure (SMILES): C=CC(=O)Nc1cc(-n2c(=O)ccc3cnc4ccc(-c5ccc(NS(C)(=O)=O)cc5)cc4c32)ccc1C [BMX-IN-1]
IC50 [3]: 8 nM

Structure (SMILES): Cc1c(NC(=O)c2cc3c(s2)CCCC3)cccc1-c1cn(C)c(=O)c(Nc2ccc([C@@H]3C(=O)N(C)CCN3C)cc2)n1 [GDC-0834]
IC50 (BTK [4]): 5.6 µM

Structure (SMILES): C/C(O)=C(\C#N)C(=O)Nc1cc(Br)ccc1Br [LFM-A13]
IC50 (Plx1): 10 µM
IC50 (PLK3): 61 µM

Structure (SMILES): NC(=O)[C@H]1CCN(c2ncnc(N)c2F)C[C@@H]1N1CCC[C@@H](Nc2cc(Cl)cc(C(F)(F)F)c2)C1=O [SNS-062]
Kd (BTK [5]): 0.3 nM
Kd [6]: 2.2 nM

IC50 (SU-DHL-6): 5.9 µM
IC50 (SU-DHL-5): 3.6 µM
Structure (SMILES): Cn1cc(C2=C(c3cn(C4CCN(Cc5ccccn5)CC4)c4ccccc34)C(=O)NC2=O)c2ccccc21 [enzastaurin]
p-BTK level [7]: significant upregulation
invasive abilities (HBL-1 cells [8]): 97.0 % of control
migration abilities (HBL-1 cells [9]): 79.0 % of control
phosphorylation of glycogen synthase kinase 3β (GSK3β) ([10]; low doses, 60 min and 120 min): clearly reduced
p-BTK, p-ERK and p-AKT expression ([10]; short-term and low-dose treatment): increasing
downregulated genes contained in the combination treatment group (HBL-1 cells [11]): 365 genes
share of downregulated transcripts contained in the combination treatment group (HBL-1 cells [11]): Approximately 91%
transcripts significantly down (HBL-1 cells [11]; 2 micromolar enzastaurin and/or 0.02 micromolar ibrutinib, p<0.05): 339 transcripts
patients experiencing FFP 20˜50 months (DLBCL patients [12]; 4/55 patients): 7%
patients with prolonged freedom from progression (FFP≥4 cycles) (DLBCL patients [12]; 8/55 patients): 15%
tumour weight [13]: 1151.62 ± 163.79 mg
reduction of tumor volume [13]: weak activity
disease-free survival (DFS) (high-risk DLBCL patients): did not significantly improve
cleavage of PARP and caspase-3 [14]: increase the cleavage of PARP and caspase-3 slightly
apoptosis as measured by annexin V staining (HBL-1 cells [15]; enzastaurin alone (concentration in FIG. 3a)): 25.5±5.4%
survival of DGM1-positive over DGM1-negative patients (DLBCL patients [16]): significantly improved survival
IC50 [17]: 6.7 to 16 µM

Structure (SMILES): C=CC(=O)N1CCC[C@@H](n2nc(-c3ccc(Oc4ccccc4)cc3)c3c(N)ncnc32)C1 [ibrutinib]
invasive abilities (HBL-1 cells [8]): 85.0 % of control
migration abilities (HBL-1 cells [9]): 70.2 % of control
overall response rate (ORR) (relapsed DLBCL patients; patients with ABC-DLBCL (14/38)): 37%
overall response rate (ORR) (relapsed DLBCL patients; patients with GCB-DLBCL (1/20)): 5%
phosphorylation of BTK and AKT [10]: reduced
phosphorylation of mTOR, PLCγ2, ERK and P38 ([10]; combination compared to each monotherapy alone): mild effect
tumour weight [13]: 1141.80 ± 235.57 mg
reduction of tumor volume [13]: weak activity
apoptosis as measured by annexin V staining (HBL-1 cells [15]; first-listed of two ibrutinib doses (FIG. 3a)): 15.9±6.0%
apoptosis as measured by annexin V staining (HBL-1 cells [15]; second-listed of two ibrutinib doses (FIG. 3a)): 19.0±6.7%
